The test has as its system ALS patient-derived neurons (iPS cell-derived motor neurons, heterozygous TARDBP mutation). The experiment in a line: Evaluation of cellular damage by live cell imaging, ALS patient-derived neurons. It counts as cell-based, human. The settings on record: edaravone 30 μM, 24 hours. As for the experimental part:
Human induced pluripotent stem (iPS) cells were induced from cells derived from an ALS patient and cells derived from a healthy individual using a conventional method. The cells derived from the ALS patient were used that are known to have an ALS risk mutation as a heterozygous mutation in the TARDBP gene. Each iPS cell was differentiated into a motor neuron (hereinafter, also simply referred to as a “neuron”) using a conventional method. […]
A treatment was performed in which the culture medium dissolved with a dimethyl sulfoxide (DMSO) solution of the evaluation compound (edaravone) (final concentration: edaravone 30 μM, DMSO 0.03% v/v) was brought into contact with the neurons after 7 days of cultivation, and occurrence of cellular damage was evaluated over time. […]
Evaluation of cellular damage was performed by live cell imaging using IncuCyte S3 (Sartorius) and Cytotox (Sartorius, 4846) according to an attached protocol. The neurite length per unit area (unit: mm/mm^2) and the number of dead cells (unit: count/image) were analyzed over time and used as evaluation indicators. […]

With `CC1=NN(c2ccccc2)C(=O)C1` [edaravone, 5-methyl-2-phenyl-2,4-dihydro-3H-pyrazol-3-one], under “vs DMSO-treated group (FIG. 13)”, the “neurite length (rate of change, DMSO group = 100)” value is recorded as “significantly increased”. Besides, for the setting “vs DMSO-treated group (FIG. 14)”, the “number of dead neurons (rate of change, DMSO group = 100)” value was “significantly decreased”.

The values above are taken from patent US20250137054A1, “COMPOSITION AND METHOD FOR EVALUATING RESPONSIVENESS OF EDARAVONE” (MITSUBISHI TANABE PHARMA CORPORATION, priority 2022, published 2025).
